Measurements: ChEMBL document CHEMBL1201862, “PubChem BioAssay data set” (2004)
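Growth conditions: 96-well plates. Treatment: test compound, 48 hours, 5 concentrations. Analysis: linear interpolation between bracketing concentrations; unreached endpoints set to highest concentration. At the GI50, growth is halved.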 Calls of active or inactive are those of the source. Cut-off read from the data, not from the text of the source: active = GI50 up to about 1.1 µM and inactive = higher.

Assays:
Test in all cases: NCI-60 cell line screen, 48 h
M14 = test system: M14
SNB-19 = test system: SNB-19
786-0 = test system: 786-0
SF-295 = test system: SF-295
SK-MEL-2 = test system: SK-MEL-2
UACC-257 = test system: UACC-257
EKVX = test system: EKVX
HOP-62 = test system: HOP-62
KM12 = test system: KM12
UACC-62 = test system: UACC-62
HOP-92 = test system: HOP-92
HCC 2998 = test system: HCC 2998
HCT-116 = test system: HCT-116
MOLT-4 = test system: MOLT-4
NCI-H23 = test system: NCI-H23
NCI-H522 = test system: NCI-H522
SN12C = test system: SN12C

Measured: GI50

CCSC1=CC(Cc2ccc(OC)cc2)N(C(=O)OC)C1 (stereo not given)
inactive: M14 > 100 µM | SNB-19 > 100 µM | 786-0 > 100 µM | SF-295 > 100 µM | SK-MEL-2 97.7 µM | UACC-257 90.6 µM | EKVX > 100 µM | HOP-62 > 100 µM | KM12 97.7 µM | UACC-62 65.8 µM | HOP-92 55.2 µM | HCC 2998 > 100 µM | HCT-116 52.2 µM | MOLT-4 > 100 µM | NCI-H23 > 100 µM | NCI-H522 52.6 µM | SN12C > 100 µM

C/C(=N/NC(=O)C(N)=O)C(CC(C(=O)Nc1ccccc1C)/C(C)=N\NC(=O)C(N)=O)C(=O)Nc1ccccc1C (stereo not given)
inactive: M14 > 100 µM | SNB-19 > 100 µM | 786-0 > 100 µM | SF-295 > 100 µM | SK-MEL-2 > 100 µM | UACC-257 > 100 µM | EKVX > 100 µM | HOP-62 > 100 µM | KM12 > 100 µM | HOP-92 47.1 µM | HCC 2998 > 100 µM | MOLT-4 75.9 µM | NCI-H23 > 100 µM | NCI-H522 66.4 µM | SN12C > 100 µM

CC(C)S(=O)(=O)ON1C(=O)c2ccc([N+](=O)[O-])cc2C1=O
inactive: M14 > 100 µM | SNB-19 > 100 µM | 786-0 > 100 µM | SF-295 > 100 µM | SK-MEL-2 > 100 µM | UACC-257 > 100 µM | EKVX > 100 µM | HOP-62 > 100 µM | KM12 > 100 µM | UACC-62 > 100 µM | HOP-92 41.9 µM | HCC 2998 > 100 µM | HCT-116 > 100 µM | NCI-H23 > 100 µM | NCI-H522 > 100 µM | SN12C > 100 µM

CCCC/C=C1\CCC(C)(CN(C)C)C1=O (stereo not given)
inactive: M14 > 100 µM | 786-0 > 100 µM | SF-295 > 100 µM | SK-MEL-2 > 100 µM | UACC-257 > 100 µM | EKVX > 100 µM | HOP-62 > 100 µM | KM12 > 100 µM | UACC-62 > 100 µM | HOP-92 > 100 µM | HCC 2998 > 100 µM | HCT-116 > 100 µM | MOLT-4 > 100 µM | NCI-H23 > 100 µM | NCI-H522 28.9 µM | SN12C > 100 µM

COC(=O)N/N=C(\C)c1c(O)cc(C)oc1=O
inactive: M14 35.2 µM | SNB-19 > 100 µM | 786-0 56.2 µM | SF-295 29.4 µM | SK-MEL-2 41.4 µM | UACC-257 > 100 µM | EKVX > 100 µM | HOP-62 36.2 µM | KM12 52.6 µM | UACC-62 5.62 µM | HOP-92 > 100 µM | HCC 2998 43.9 µM | HCT-116 98.4 µM | MOLT-4 18.5 µM | NCI-H23 > 100 µM | SN12C 78.5 µM

CCOc1ccc(/N=C/c2c3ccccc3nc3ccccc23)cc1
inactive: M14 55.2 µM | SNB-19 73.8 µM | 786-0 39.7 µM | SF-295 59.6 µM | SK-MEL-2 31.3 µM | UACC-257 55.1 µM | EKVX 95.3 µM | HOP-62 39.4 µM | KM12 4.33 µM | UACC-62 95.3 µM | HOP-92 > 100 µM | HCC 2998 > 100 µM | MOLT-4 4.25 µM | NCI-H23 54 µM | NCI-H522 49 µM | SN12C > 100 µM

O=C(Nc1c(O)[nH]c(=S)[nH]c1=O)c1ccccc1F
inactive: M14 > 100 µM | SNB-19 > 100 µM | 786-0 > 100 µM | SF-295 > 100 µM | SK-MEL-2 > 100 µM | UACC-257 > 100 µM | HOP-62 > 100 µM | KM12 > 100 µM | UACC-62 > 100 µM | HOP-92 > 100 µM | HCT-116 > 100 µM | MOLT-4 > 100 µM | NCI-H23 > 100 µM | NCI-H522 > 100 µM | SN12C > 100 µM

C=CCCCCCCCCCCCC1CCC(CC)N1 (stereo not given)
inactive: M14 12.1 µM | SNB-19 15.5 µM | 786-0 9.1 µM | SF-295 13.8 µM | SK-MEL-2 13.2 µM | UACC-257 13.9 µM | EKVX 15.5 µM | HOP-62 12.3 µM | KM12 3.87 µM | UACC-62 14.2 µM | HCC 2998 3.37 µM | HCT-116 6.04 µM | MOLT-4 4.06 µM | NCI-H23 14.4 µM | NCI-H522 3.78 µM | SN12C 11.5 µM

O=C1C2C3C=C4c5ccccc5N(c5ccccc5)C4(C2C(=O)N1c1ccc(Br)cc1)[C@H]1C(=O)N(c2ccc(Br)cc2)C(=O)[C@@H]31 (stereo not given in full)
inactive: M14 43.4 µM | SNB-19 > 100 µM | 786-0 > 100 µM | SF-295 > 100 µM | SK-MEL-2 > 100 µM | UACC-257 > 100 µM | EKVX > 100 µM | HOP-62 > 100 µM | KM12 > 100 µM | UACC-62 > 100 µM | HOP-92 84.3 µM | HCT-116 > 100 µM | MOLT-4 8.89 µM | NCI-H23 > 100 µM | NCI-H522 > 100 µM | SN12C > 100 µM

COc1ccc(/N=C/c2ccc(N(CCC#N)S(=O)(=O)c3ccccc3)cc2)cc1
inactive: M14 > 100 µM | SNB-19 > 100 µM | 786-0 > 100 µM | SF-295 > 100 µM | SK-MEL-2 > 100 µM | UACC-257 > 100 µM | EKVX > 100 µM | HOP-62 > 100 µM | KM12 > 100 µM | UACC-62 > 100 µM | HOP-92 > 100 µM | HCT-116 > 100 µM | MOLT-4 > 100 µM | NCI-H23 > 100 µM | NCI-H522 > 100 µM | SN12C > 100 µM

CCCCCCCCCCCCCCCCOC(=O)c1cc(O)cc(C(=O)OCCCCCCCCCCCCCCCC)c1
inactive: M14 > 100 µM | SNB-19 > 100 µM | 786-0 > 100 µM | SF-295 > 100 µM | SK-MEL-2 > 100 µM | UACC-257 > 100 µM | EKVX > 100 µM | KM12 > 100 µM | UACC-62 > 100 µM | HOP-92 > 100 µM | HCC 2998 > 100 µM | HCT-116 > 100 µM | MOLT-4 > 100 µM | NCI-H23 > 100 µM | NCI-H522 > 100 µM | SN12C > 100 µM

COC(=O)C12C34C=CC5(CCC6(C=CC1(CC3)O6)C52C(=O)OC)O4 (stereo not given)
inactive: SNB-19 > 100 µM | 786-0 > 100 µM | SF-295 > 100 µM | SK-MEL-2 > 100 µM | UACC-257 > 100 µM | EKVX > 100 µM | HOP-62 > 100 µM | KM12 > 100 µM | HOP-92 > 100 µM | HCC 2998 > 100 µM | HCT-116 > 100 µM | MOLT-4 > 100 µM | NCI-H23 > 100 µM | NCI-H522 > 100 µM | SN12C > 100 µM
